Reference: patent US20240368150A1 (Hoffmann-La Roche Inc., priority 2021, published 2024)
Read-outs that look alike come from different tables or passages of the source.

How the values were obtained:
[1] = system: primary human T-cells; test: Proliferation assay after 5 days (CellTiter-Glo, CD3 stimulation; PBS counter screen); format: cell-based; settings: Homo sapiens, T-cell, 120 h, CD3 stimulation; for Emax: 5 days, normalized to reference compound A1 as stimulator control = 100%, DMSO neutral control, read-out: Emax proliferation (% activation); for EC50: primary human T-cells, CellTiter-Glo after 5 days, EC50 of fitted sigmoidal curve, read-out: Tcell Proliferation CD3 EC50
How it was run: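 Primary human T-cells, with or without CD3 stimulation, exposed to compounds for 5 days; cell number read as ATP by CellTiter-Glo 2.0 luminescence after 45 min equilibration and 15 min reagent incubation at room temperature. Compounds activating unstimulated cells or reducing viability were flagged.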

[2] = system: primary human T-cells

Structure (SMILES) | Emax [1] [%] | EC50 [1] [nM] | EC50 [2] [nM]
CC(C)(C)c1nnc(-c2cc3c(cc2F)S(=O)(=O)C[C@H](N)C(=O)N3Cc2ccc(S(C)(=O)=O)cc2)o1 [Example 229, (3R)-3-amino-7-(5-tert-butyl-1,3,4-oxadiazol-2-yl)-8-fluoro-5-[(4-methylsulfonylphenyl)methyl]-1,1-dioxo-2,3-dihydro-1λ^6,5-benzothiazepin-4-one] | 116 | 1680 | 2440
COc1ccc(CN2C(=O)[C@@H](N)CS(=O)(=O)c3cc(F)c(-c4nnc(C(C)(C)C)o4)cc32)cc1 [Example 230] | 119 | 89.3 | 105
CC(C)(C)c1nnc(-c2cc3c(cc2F)S(=O)(=O)C[C@H](N)C(=O)N3Cc2ccc(F)cc2)o1 [Example 231, (3R)-3-amino-7-(5-tert-butyl-1,3,4-oxadiazol-2-yl)-8-fluoro-5-[(4-fluorophenyl)methyl]-1,1-dioxo-2,3-dihydro-1\6,5-benzothiazepin-4-one] | 114 | 257 | 295
CC(C)(C)c1nnc(-c2cc3c(cc2F)S(=O)(=O)C[C@H](N)C(=O)N3Cc2ccc(Oc3ccccc3)cc2)o1 [Example 233] | 127 | 86.6 | 95
CC(C)(C)c1nnc(-c2cc3c(cc2F)S(=O)(=O)C[C@H](N)C(=O)N3Cc2ccc(OCCO)cc2)o1 [Example 234, (3R)-3-amino-7-(5-tert-butyl-1,3,4-oxadiazol-2-yl)-8-fluoro-5-[[4-(2-hydroxyethoxy)phenyl]methyl]-1,1-dioxo-2,3-dihydro-1λ^6,5-benzothiazepin-4-one] | 130 | 1200 | 5340
CC(=O)NCCCCCCCCCCCOc1ccc(CN2C(=O)[C@@H](N)CS(=O)(=O)c3cc(F)c(-c4nnc(C(C)(C)C)o4)cc32)cc1 [Example 235, N-[11-[4-[[(3R)-3-amino-7-(5-tert-butyl-1,3,4-oxadiazol-2-yl)-8-fluoro-1,1,4-trioxo-2,3-dihydro-1λ^6,5-benzothiazepin-5-yl]methyl]phenoxy]undecyl]acetamide] | 108 | 46.6 | 170
CC(C)(C)c1nnc(-c2cc3c(cc2F)S(=O)(=O)C[C@H](N)C(=O)N3Cc2ccc(OCC(N)=O)cc2)o1 [Example 236, 2-[4-[[(3R)-3-amino-7-(5-tert-butyl-1,3,4-oxadiazol-2-yl)-8-fluoro-1,1,4-trioxo-2,3-dihydro-1λ^6,5-benzothiazepin-5-yl]methyl]phenoxy]acetamide] | 98 | 3240 | 3230
CC(C)(C)c1nnc(-c2cc3c(cc2F)S(=O)(=O)C[C@H](N)C(=O)N3Cc2cnc(C3CC3)nc2)o1 [Example 238, (3R)-3-amino-7-(5-tert-butyl-1,3,4-oxadiazol-2-yl)-5-[(2-cyclopropylpyrimidin-5-yl)methyl]-8-fluoro-1,1-dioxo-2,3-dihydro-1λ^6,5-benzothiazepin-4-one] | 102 | 3070 | 769
CC(C)(C)c1nnc(-c2cc3c(cc2F)S(=O)(=O)C[C@H](N)C(=O)N3Cc2ccc(C3(O)COC3)cc2)o1 [Example 239, (3R)-3-amino-7-(5-tert-butyl-1,3,4-oxadiazol-2-yl)-8-fluoro-5-[[4-(3-hydroxyoxetan-3-yl)phenyl]methyl]-1,1-dioxo-2,3-dihydro-1λ^6,5-benzothiazepin-4-one] | 69 | 5100 | 5580
CC(C)(C)c1nnc(-c2cc3c(cc2F)S(=O)(=O)C[C@H](N)C(=O)N3Cc2ccc(S(C)(=O)=O)cc2F)o1 [Example 240, (3R)-3-amino-7-(5-tert-butyl-1,3,4-oxadiazol-2-yl)-8-fluoro-5-[(2-fluoro-4-methylsulfonyl-phenyl)methyl]-1,1-dioxo-2,3-dihydro-1λ^6,5-benzothiazepin-4-one] | 74 | 5550 | 6390
CCc1coc(CN2C(=O)[C@@H](N)CS(=O)(=O)c3cc(F)c(-c4nnc(C(C)(C)C)o4)cc32)n1 [Example 241, (3R)-3-amino-7-(5-tert-butyl-1,3,4-oxadiazol-2-yl)-5-[(4-ethyloxazol-2-yl)methyl]-8-fluoro-1,1-dioxo-2,3-dihydro-1λ^6,5-benzothiazepin-4-one] | 73 | 2940 | > 10000
CC(C)(C)c1nnc(-c2cc3c(cc2F)S(=O)(=O)C[C@H](N)C(=O)N3Cc2ccc(S(C)(=O)=O)c(F)c2)o1 [Example 242, (3R)-3-amino-7-(5-tert-butyl-1,3,4-oxadiazol-2-yl)-8-fluoro-5-[(3-fluoro-4-methylsulfonyl-phenyl)methyl]-1,1-dioxo-2,3-dihydro-1λ^6,5-benzothiazepin-4-one] | 92 | 3400 | 4800
CC(C)(C)c1nnc(-c2cc3c(cc2F)S(=O)(=O)C[C@H](N)C(=O)N3Cc2ccc(OCC(F)(F)F)cc2)o1 [Example 243, (3R)-3-amino-7-(5-tert-butyl-1,3,4-oxadiazol-2-yl)-8-fluoro-1,1-dioxo-5-[[4-(2,2,2-trifluoroethoxy)phenyl]methyl]-2,3-dihydro-1λ^6,5-benzothiazepin-4-one] | 129 | 246 | 918
CC(C)(C)c1nnc(-c2cc3c(cc2F)S(=O)(=O)C[C@H](N)C(=O)N3Cc2ccc(Cl)c(F)c2)o1 [Example 245, (3R)-3-amino-7-(5-tert-butyl-1,3,4-oxadiazol-2-yl)-5-[(4-chloro-3-fluoro-phenyl)methyl]-8-fluoro-1,1-dioxo-2,3-dihydro-1λ^6,5-benzothiazepin-4-one] | 127 | 102 | 92.1
CC(C)(C)c1nnc(-c2cc3c(cc2F)S(=O)(=O)C[C@H](N)C(=O)N3Cc2ccc(F)c(F)c2)o1 [Example 246, (3R)-3-amino-7-(5-tert-butyl-1,3,4-oxadiazol-2-yl)-5-[(3,4-difluorophenyl)methyl]-8-fluoro-1,1-dioxo-2,3-dihydro-1λ^6,5-benzothiazepin-4-one] | 110 | 442 | 342
CC(C)Oc1ccc(CN2C(=O)[C@@H](N)CS(=O)(=O)c3cc(F)c(-c4nnc(C(C)(C)C)o4)cc32)nc1 [Example 247, (3R)-3-amino-7-(5-tert-butyl-1,3,4-oxadiazol-2-yl)-8-fluoro-5-[(5-isopropoxy-2-pyridyl)methyl]-1,1-dioxo-2,3-dihydro-1λ^6,5-benzothiazepin-4-one] | 79 | 761 | 320
CC(C)(C)c1nnc(-c2cc3c(cc2F)S(=O)(=O)C[C@H](N)C(=O)N3Cc2ccc(OC3CCCC3)nc2)o1 [Example 248, (3R)-3-amino-7-(5-tert-butyl-1,3,4-oxadiazol-2-yl)-5-[[6-(cyclopentoxy)-3-pyridyl]methyl]-8-fluoro-1,1-dioxo-2,3-dihydro-1λ^6,5-benzothiazepin-4-one] | 157 | 440 | 140
CC(C)(C)c1nnc(-c2cc3c(cc2F)S(=O)(=O)C[C@H](N)C(=O)N3Cc2ccc(Cl)nn2)o1 [Example 251, (3R)-3-amino-7-(5-tert-butyl-1,3,4-oxadiazol-2-yl)-5-[(6-chloropyridazin-3-yl)methyl]-8-fluoro-1,1-dioxo-2,3-dihydro-1λ^6,5-benzothiazepin-4-one] | 66 | 5300 | > 10000
CC(C)(C)c1nnc(-c2cc3c(cc2F)S(=O)(=O)C[C@H](N)C(=O)N3Cc2cncc(Cc3ccc(Cl)cc3)c2)o1 [Example 252, (3R)-3-amino-7-(5-tert-butyl-1,3,4-oxadiazol-2-yl)-5-[[5-[(4-chlorophenyl)methyl]-3-pyridyl]methyl]-8-fluoro-1,1-dioxo-2,3-dihydro-1λ^6,5-benzothiazepin-4-one] | 72 | 4820 | 1160
CC(C)(C)c1nnc(-c2cc3c(cc2F)S(=O)(=O)C[C@H](N)C(=O)N3Cc2cnn(CC3CC3)c2)o1 [Example 255, (3R)-3-amino-7-(5-tert-butyl-1,3,4-oxadiazol-2-yl)-5-[[1-(cyclopropylmethyl)pyrazol-4-yl]methyl]-8-fluoro-1,1-dioxo-2,3-dihydro-1λ^6,5-benzothiazepin-4-one] | 78 | 4830 | 849
CC(C)(C)c1nnc(-c2cc3c(cc2F)S(=O)(=O)C[C@H](N)C(=O)N3Cc2ccc(Cl)cc2CN)o1 [Example 256, (3R)-3-amino-5-[[2-(aminomethyl)-4-chloro-phenyl]methyl]-7-(5-tert-butyl-1,3,4-oxadiazol-2-yl)-8-fluoro-1,1-dioxo-2,3-dihydro-1λ^6,5-benzothiazepin-4-one] | 3 | > 20000 | > 20000
CC(C)(C)c1nnc(-c2cc3c(cc2F)S(=O)(=O)C[C@H](N)C(=O)N3Cc2ccc(OCCCCCCCCCCCN)cc2)o1 [Example 257, (3R)-3-amino-5-[[4-(11-aminoundecoxy)phenyl]methyl]-7-(5-tert-butyl-1,3,4-oxadiazol-2-yl)-8-fluoro-1,1-dioxo-2,3-dihydro-1λ^6,5-benzothiazepin-4-one] | 142 | < 162 | > 20000
CC(=O)N[C@H]1CS(=O)(=O)c2cc(F)c(-c3nnc(C(C)(C)C)o3)cc2N(Cc2ccc(Cl)cc2)C1=O [Example 258, N-[(3R)-7-(5-tert-butyl-1,3,4-oxadiazol-2-yl)-5-[(4-chlorophenyl)methyl]-8-fluoro-1,1,4-trioxo-2,3-dihydro-1λ^6,5-benzothiazepin-3-yl]acetamide] | 124 | 586 | 10800
